Active and inactive are the calls of the source. No cut-off for these calls is given here.
What was measured:
Format in all cases: functional, organism-based
[1] = test system: Rattus norvegicus; experiment: Antiimplantation activity in Sprague-Dawley rat assessed as decrease in implantation sites at 30 mg/kg administered postcoitally; design: dose 30 mg/kg
[2] = test system: Rattus norvegicus; experiment: Antiimplantation activity in Sprague-Dawley rat assessed as decrease in fertility rate at 30 mg/kg administered postcoitally; design: dose 30 mg/kg
[3] = test system: Rattus norvegicus; experiment: Antiimplantation activity in Sprague-Dawley rat assessed as decrease in implantation sites at 60 mg/kg administered postcoitally; design: dose 60 mg/kg
[4] = test system: Rattus norvegicus; experiment: Estrogenic activity in Sprague-Dawley rat at 30 mg/kg; design: dose 30 mg/kg
[5] = test system: Rattus norvegicus; experiment: Antiimplantation activity in Sprague-Dawley rat assessed as absence of viable fetuses at 15 mg/kg administered postcoitally; design: dose 15 mg/kg
[6] = test system: Rattus norvegicus; experiment: Antiimplantation activity in Sprague-Dawley rat at 5 mg/kg, po administered postcoitally; design: dose 5 mg/kg
[7] = test system: Rattus norvegicus; experiment: Antiimplantation activity in Sprague-Dawley rat administered postcoitally

Question: Which results are given for C[C@H]1[C@H](c2ccc(O)cc2)c2cc(O)c(O)cc2C[C@H]1C?
Answer: Activity [1]: Active; Activity [2]: Active; Activity [3]: Active; Activity [4]: Active; Activity [5]: Active; Activity [6]: inactive; Activity [7]: Dose-dependent effect

From ChEMBL document CHEMBL1151147, “Furanoid lignans from Larrea tridentata” (J Nat Prod, 1990)
